This note sets out measurements from patent US20090258877A1, “TRIAZOLOTRIAZINES AND TRIAZOLOPYRAZINES AND THEIR USE” (BAYER HEALTHCARE AG, priority 2007, published 2009).

Structures are written as SMILES.

In this test the target is T1, GSK3β (Homo sapiens, UniProt P49841).
T1 construct: purchased Upstate 14-306
T1 sequence (P49841 whole entry): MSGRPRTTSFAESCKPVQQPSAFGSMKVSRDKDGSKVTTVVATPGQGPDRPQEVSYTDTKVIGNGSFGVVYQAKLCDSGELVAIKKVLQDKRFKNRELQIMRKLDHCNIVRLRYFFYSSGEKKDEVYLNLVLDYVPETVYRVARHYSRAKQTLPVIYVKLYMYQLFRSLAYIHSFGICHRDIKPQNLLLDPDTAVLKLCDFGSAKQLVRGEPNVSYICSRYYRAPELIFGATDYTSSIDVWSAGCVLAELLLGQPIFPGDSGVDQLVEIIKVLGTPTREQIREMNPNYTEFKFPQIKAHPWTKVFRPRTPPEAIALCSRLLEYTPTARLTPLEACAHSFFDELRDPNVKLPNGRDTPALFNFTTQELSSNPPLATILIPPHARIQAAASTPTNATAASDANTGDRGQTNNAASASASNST
In words: GSK3β biochemical in vitro assay (coupled pyruvate kinase/lactate dehydrogenase, NADH fluorescence). Conditions: 5 nM GSK3β, 50 μM ATP, 40 μM GSM substrate, 30° C., 2 hours. As for the experimental part:
The inhibitory activity of active substances is determined in a biochemical assay. The ingredients required for this purpose are mixed in a black 384-well microtitre plate with transparent base (from Greiner, catalogue number 781092). The requirements in this connection for each well of the 384-well microtitre plate are 5 nM GSK3β (from Upstate, catalogue number 14-306), 40 μM GSK3β substrate GSM (sequence H-RRRPASVPPSPSLSRHS-(pS)-HQRR, from Upstate, catalogue number 2-533), 30 μM nicotinamide adenine dinucleotide NADH (Roche Diagnostics, catalogue number 10107735), 50 μM adenosine triphosphate ATP (from Sigma, catalogue number A7966), 2 mM phosphoenolpyruvate (from Roche, catalogue number 128112), and also about 1 U/ml of pyruvate kinase and about 1 U/ml of lactate dehydrogenase, which are present together in a stock formulation (from Roche, catalogue number 10737291001, suspension with about 450 U/ml of pyruvate kinase activity, about 450 U/ml of lactate dehydrogenase activity in […] ammonium sulphate solution pH 6), where 1 unit pyruvate kinase converts, at pH 7.6 and 37° C., 1 μmol of phosphoenolpyruvate into pyruvate per minute, and where 1 unit of lactate dehydrogenase reduces, at pH 7.5 and 37° C., 1 μmol of pyruvate to lactate per minute. The required reaction buffer in which the biochemical reaction takes place consists of 50 mM Trizma hydrochloride Tris-HCl pH: 7.5 (from Sigma, catalogue number T3253), 5 mM magnesium chloride MgCl2 (from Sigma, catalogue number M8266), 0.2 mM DL-dithiothreitol DTT (from Sigma, catalogue number D9779), 2 mM ethylenediaminetetraacetic acid EDTA (from Sigma, catalogue number E6758), 0.01% Triton X-100 (from Sigma, catalogue number T8787) and 0.05% bovine serum albumin BSA (from Sigma, catalogue number B4287).
Active substances are dissolved in dimethyl sulphoxide DMSO (from Sigma, catalogue number D8418) in a concentration of 10 mM. Active substances are added in serial concentrations of 10 μM, 1 μM, 0.1 μM, 0.01 μM, 0.001 μM, 0.0001 μM, 0.00001 μM, 0.000001 μM to the mixtures of the biochemical reaction. As control, dimethyl sulphoxide is added instead of substance in a final concentration of 0.1%.
The reaction is incubated at 30° C. for 2 hours and then the resulting fluorescence is measured in a Tecan Safire-XFLUOR4 instrument, version V4.50 (serial number 12901300283) with the specifications: measurement mode—fluorescence measured from below, excitation wavelength 340 nm, emission wavelength 465 nm, slit width excitation 5 nm, slit width emission 5 nm, gain mode 120, delay 0 μs, number of light flashes per measurement 3, and an integration time of 40 μs.
The activity of the active substances is calculated in relation to these 0% and 100%.
In turn, `Nc1nc(NCCNc2nc(-c3ccc(Cl)cc3Cl)nn3cnnc23)ccc1C(=O)C(F)(F)F` [Example 8, 1-{2-Amino-6-[(2-{[6-(2,4-dichlorophenyl)[1,2,4]triazolo[3,4-f][1,2,4]triazin-8-yl]amino}ethyl)-amino]pyridin-3-yl}-2,2,2-trifluoroethanone] had an IC50 of 9.1 nM. The value for `Nc1nc(NCCNc2nc(-c3ccc(Cl)cc3Cl)cn3ncnc23)ccc1C(=O)C(F)(F)F` [Example 6, 1-{2-Amino-6-[(2-{[6-(2,4-dichlorophenyl)[1,2,4]triazolo[1,5-a]pyrazin-8-yl]amino}ethyl)amino]-pyridin-3-yl}-2,2,2-trifluoroethanone] was 13 nM; that for `CCC(=O)c1ccc(NC2CCCN(c3nc(-c4ccc(Cl)cc4Cl)nn4cnnc34)C2)nc1N` (stereo not shown) [Example 11, 1-[2-Amino-6-({1-[6-(2,4-dichlorophenyl) [1,2,4]triazolo[3,4-f][1,2,4]triazin-8-yl]piperidin-3-yl}-amino)pyridin-3-yl]propan-1-one] was 4.4 nM. The value for `N#Cc1sc(NCCNc2nc(-c3ccc(Cl)cc3Cl)cn3ncnc23)nc1N` [Example 15, 4-Amino-2-[(2-{[6-(2,4-dichlorophenyl)[1,2,4]triazolo[1,5-a]pyrazin-8-yl]amino}ethyl)amino]-1,3-thiazole-5-carbonitrile] was 3.2 nM.
